Patent US20240262793A1, “QUINAZOLINE COMPOUND, AND PREPARATION METHOD THEREFOR AND APPLICATION THEREOF” (SHANGHAI PHARMACEUTICALS HOLDING CO., LTD., priority 2021, published 2024)

Assays:
Format in all cases: cell-based
Conditions in all cases: Homo sapiens, LPS 100 ng/mL
TNF-α = assay: Inhibition of TNF-α in PMA-differentiated, LPS-stimulated THP-1 cells (ELISA of cell supernatant)
Experimental: (§1) (1) Cell culture and inoculation: A stock solution of PMA at 1 mg/mL was diluted with serum-free RP1640 medium to prepare a 100 ng/mL PMA solution. Normal cultured THP-1 cells were centrifuged, resuspended in a complete medium (RP1640 medium containing 10% FBS), and counted. The cell density was adjusted to 2×10^6 cells/mL. An equal volume of 100 ng/mL PMA solution was then added, resulting in a cell density of 1×10^6 cells/mL and a final PMA concentration of 50 ng/mL. 100 μL of the cell suspension was seeded into each well of a 96-well cell culture plate with 1×10^5 cells per well. The 96-well cell culture plate was then incubated at 37° C. in a 5% CO2 atmosphere for 24 hours.
(§2) (2) Drug treatment of cells: On the second day, LPS was added to the complete medium to adjust the final concentration to 100 ng/mL, and the compound was prepared using this LPS-containing medium. The compound was added to the appropriate cell wells according to the prepared concentration gradient. The positive control group (LPS+) was a culture medium solution containing a final concentration of 100 ng/mL LPS and 0.1% DMSO without drugs, while the negative control group (LPS-) was a culture medium solution containing 0.1% DMSO without LPS. The volume in each well was 100 μL.
(§3) (3) Test sample collection: The mixture was centrifuged at 1000 rpm for 5 minutes and the cell supernatant and cell precipitate were collected separately. The cell supernatant was used to detect TNF-α and IL-6, and the cell precipitate was collected for IL-1β detection. After collecting the cell supernatant, the remaining liquid in the wells was discarded and 100 μL of cell lysis solution (20 mM Tris 8.0; 2 mM EDTA; 0.5% Triton X-100) was added to each well for complete lysis.
(§4) (4) Sample detection: The enzyme-linked immunosorbent assay (ELISA) was used to detect the content of each cytokine. The specific steps were performed according to the instructions provided in the corresponding kit manuals. The catalog numbers of kits are as follows: • Human TNF-alpha Quantikine ELISA Kit, Catalog # STA00D • Human IL-1 beta/IL-1F2 Quantikine ELISA Kit, Catalog # SLB50 • Human IL-6 Quantikine ELISA Kit, Catalog # S6050.
(§5) (5) Data analysis: The in vitro inhibitory activity of the compounds was calculated using the following formula: […]

IL-1β = assay: Inhibition of IL-1β in PMA-differentiated, LPS-stimulated THP-1 cells (ELISA of cell lysate)
Experimental: as §1, §2, §3, §4, §5

IL-6 = assay: Inhibition of IL-6 in PMA-differentiated, LPS-stimulated THP-1 cells (ELISA of cell supernatant)
Experimental: as §1, §2, §3, §4, §5

Row | SMILES | IC50 (TNF-α; THP-1, Table 8, PMA 50 ng/mL) [µM] | IC50 (IL-1β; THP-1, Table 8, PMA 50 ng/mL) [µM] | IC50 (IL-6; THP-1, Table 8, PMA 50 ng/mL) [µM] | IC50 (TNF-α; THP-1, Table 7, PMA 50 ng/mL) [µM] | IC50 (IL-1β; THP-1, Table 7, PMA 50 ng/mL) [µM] | IC50 (IL-6; THP-1, Table 7, PMA 50 ng/mL) [µM]
1 | O=C1CNC(=O)N1CCCCCNc1ncnc2cc(Cl)ccc12 [Example 67, 3-(5-((7-Chloroquinazolin-4-yl)amino)pentyl)imidazoline-2,4-dione] | 65.2 | 105 | 4.6 | – | – | –
2 | O=C1CCC(=O)N1CCCCNc1ccnc2cc(Cl)ccc12 [Example 11, 1-(4-((7-Chloroquinolin-4-yl)amino)butyl)pyrrolidine-2,5-dione] | – | – | – | 29.9 | 24.3 | 10.6
3 | C[C@@H](CCCN1C(=O)NC2(CC2)C1=O)Nc1ncnc2cc(Cl)ccc12 [Example 77, (S)-6-(4-((7-Chloroquinazolin-4-yl)amino)pentyl)-4,6-diazaspiro[2.4]heptane-5,7-dione] | 22.7 | 26.6 | 1.37 | – | – | –
4 | OCCN(CCCCCNc1ncnc2cc(F)ccc12)Cc1ncco1 [Example 48, 2-((5-((7-Fluoroquinazolin-4-yl)amino)pentyl)(oxazol-2-ylmethyl)amino)ethan-1-ol] | – | – | – | 14.8 | 49.6 | 0.91
5 | C[C@@H](CCCN1C(=O)CNC1=O)Nc1ncnc2cc(Cl)ccc12 [Example 75, (S)-3-(4-((7-Chloroquinazolin-4-yl)amino)pentyl)imidazolidine-2,4-dione] | 45.6 | 53.8 | 4.28 | – | – | –
6 | CC(CCCN1C(=O)NC2(CCC2)C1=O)Nc1ncnc2cc(Cl)ccc12 (stereo not drawn) [Example 71, 7-(4-((7-Chloroquinazolin-4-yl)amino)pentyl)-5,7-diazaspiro[3.4]octane-6,8-dione] | 12.7 | 16.1 | 0.64 | – | – | –
7 | CC(CCCN1C(=O)NC2(CC2)C1=O)Nc1ncnc2cc(Cl)ccc12 (stereo not drawn) [Example 73, 6-(4-((7-Chloroquinazolin-4-yl)amino)pentyl)-4,6-diazaspiro[2.4]heptane-5,7-dione] | 33.5 | 38.1 | 1.5 | – | – | –
8 | O=C1CNC(=O)N1CCCCNc1ncnc2cc(Cl)ccc12 [Example 63, 3-(4-((7-Chloroquinazolin-4-yl)amino)butyl)imidazoline-2,4-dione] | 79.4 | 23.1 | 14.4 | – | – | –
9 | CC(CCCN1C(=O)CNC1=O)Nc1ncnc2cc(Cl)ccc12 (stereo not drawn) [Example 13, 3-(4-((7-Chloroquinazolin-4-yl)amino)pentyl)imidazolidine-2,4-dione] | – | – | – | 7.83 | 28.6 | 1.8
10 | CN1CC(=O)N(CCCCNc2ncnc3cc(F)ccc23)C1=O [Example 58, 3-(4-((7-Fluoroquinazolin-4-yl)amino)butyl)-1-methylimidazoline-2,4-dione] | 90.7 | 86.5 | 2.58 | – | – | –
11 | CN1CC(=O)N(CCCCCNc2ncnc3cc(F)ccc23)C1=O [Example 54, 3-(5-((7-Fluoroquinazolin-4-yl)amino)pentyl)-1-methylimidazoline-2,4-dione] | 114 | 154 | 1.05 | – | – | –

Continued, values first:

Row | IC50 (TNF-α; THP-1, Table 8, PMA 50 ng/mL) [µM] | IC50 (IL-1β; THP-1, Table 8, PMA 50 ng/mL) [µM] | IC50 (IL-6; THP-1, Table 8, PMA 50 ng/mL) [µM] | IC50 (TNF-α; THP-1, Table 7, PMA 50 ng/mL) [µM] | IC50 (IL-1β; THP-1, Table 7, PMA 50 ng/mL) [µM] | IC50 (IL-6; THP-1, Table 7, PMA 50 ng/mL) [µM] | SMILES
12 | – | – | – | 12.6 | 10.3 | 1.09 | OCCN(CCCCCNc1ncnc2cc(Cl)ccc12)Cc1ccc(OC(F)(F)F)cc1 [Example 45, 2-((5-((7-Chloroquinazolin-4-yl)amino)pentyl)(4-(trifluoromethoxy)benzyl)amino)ethan-1-ol]
13 | – | – | – | 1.41 | 0.65 | 0.19 | CC(CCCN(CCO)Cc1ccc(F)cc1F)Nc1ncnc2cc(Cl)ccc12 (stereo not drawn) [Example 21, 2-((4-((7-Chloroquinazolin-4-yl)amino)pentyl)(2,4-difluorobenzyl)amino)ethan-1-ol]
14 | – | – | – | 3.82 | 14 | 0.33 | CC(CCCN(CCO)Cc1ccc(S(C)(=O)=O)cc1)Nc1ccnc2cc(Cl)ccc12 (stereo not drawn) [Example 26, 2-((4-((7-Chloroquinolin-4-yl)amino)pentyl)(4-(methylsulfonyl)benzyl)amino)ethan-1-ol]
15 | 90.5 | 164 | 123 | 69.3 | 62.2 | 32 | CCN(CCO)CCCC(C)Nc1ccnc2cc(Cl)ccc12 (stereo not drawn) [HCQ, Hydroxychloroquine, reference compound]
16 | – | – | – | 12.2 | 30.1 | 2.06 | CC(CCCN1CC2(CCOCC2)C1)Nc1ccnc2cc(Cl)ccc12 (stereo not drawn) [Example 7, N-(5-(7-Oxa-2-azaspiro[3.5]nonan-2-yl)pentan-2-yl)-7-chloroquinolin-4-amine]
17 | – | – | – | 2.17 | 5.78 | 0.53 | COC(=O)c1ccc(CN(CCO)CCCC(C)Nc2ccnc3cc(Cl)ccc23)cc1 (stereo not drawn) [Example 27, Methyl 4-(((4-((7-chloroquinolin-4-yl)amino)pentyl)(2-hydroxyethyl)amino)methyl)benzoate]
18 | – | – | – | 3.26 | 2.94 | 0.226 | CC(CCCN(CCO)Cc1ccc(F)cc1F)Nc1ccnc2cc(Cl)ccc12 (stereo not drawn) [Example 18, 2-((4-((7-Chloroquinolin-4-yl)amino)pentyl)(2,4-difluorobenzyl)amino)ethan-1-ol]
19 | – | – | – | 19.9 | 21.1 | 0.77 | COC(=O)c1ccc(CN(CCO)CCCCCNc2ncnc3cc(Cl)ccc23)cc1 [Example 44, Methyl 4-(((5-((7-chloroquinazolin-4-yl)amino)pentyl)(2-hydroxyethyl)amino)methyl)benzoate]
20 | – | – | – | 4.77 | 4.46 | 1.2 | CC(CCCN(CCO)Cc1cccc(C(F)(F)F)c1)Nc1ccnc2cc(Cl)ccc12 (stereo not drawn) [Example 24, 2-((4-((7-Chloroquinolin-4-yl)amino)pentyl)(3-(trifluoromethyl)benzyl)amino)ethan-1-ol]
21 | – | – | – | 11.2 | 10.9 | 0.68 | CC(CCCN(CCO)Cc1ccc(-n2cccn2)cc1)Nc1ccnc2cc(Cl)ccc12 (stereo not drawn) [Example 28, 2-((4-(1H-Pyrazol-1-yl)benzyl)(4-((7-chloroquinolin-4-yl)amino)pentyl)amino)ethan-1-ol]
22 | – | – | – | 10.1 | 0.7 | 0.6 | CC(CCCN(CCO)Cc1ccc(S(C)(=O)=O)cc1)Nc1ncnc2cc(Cl)ccc12 (stereo not drawn) [Example 40]
23 | – | – | – | 7.89 | 7.4 | 0.77 | CC(CCCN(CCO)Cc1ccc(-n2cccn2)cc1)Nc1ncnc2cc(Cl)ccc12 (stereo not drawn) [Example 39]
24 | – | – | – | 18.4 | 34.1 | 3.29 | CC(CCCN1CC2CCCC2C1)Nc1ccnc2cc(Cl)ccc12 (stereo not drawn) [Example 8, 7-Chloro-N-(5-(hexahydrocyclopenta[c]pyrrol-2 (1H)-yl)pentan-2-yl)quinolin-4-amine]
25 | – | – | – | 58.1 | 1 | 1.94 | OCCN(CCCCNc1ncnc2cc(Cl)ccc12)Cc1ncco1 [Example 47, 2-((4-((7-Chloroquinazolin-4-yl)amino)butyl)(oxazol-2-ylmethyl)amino)ethan-1-ol]
26 | – | – | – | 0.97 | 1.34 | 0.12 | CC(CCCN(CCO)Cc1ccc(C#N)cc1F)Nc1ccnc2cc(Cl)ccc12 (stereo not drawn) [Example 30, 4-(((4-((7-Chloroquinolin-4-yl)amino)pentyl)(2-hydroxyethyl)amino)methyl)-3-fluorobenzonitrile]
27 | – | – | – | 2.79 | 1.36 | 0.38 | CC(CCCN(CCO)Cc1ccc(C#N)cc1)Nc1ccnc2cc(Cl)ccc12 (stereo not drawn) [Example 23, 4-(((4-((7-Chloroquinolin-4-yl)amino)pentyl)(2-hydroxyethyl)amino)methyl)benzonitrile]
